Peptide text beside a SMILES is read from it.
How the values were obtained:
[1] = Selectivity ratio of IC50 for human ETA receptor stably expressed in CHO cells Membrane to IC50 human ETB receptor stably expressed in CHO cells Membrane; conditions: condition cardiovascular disease; condition vascular disease
Endothelin-1 receptor [2] = target: T1, Endothelin-1 receptor (Homo sapiens, UniProt P25101); assay: Binding affinity to ETA receptor (unknown origin) assessed as inhibition constant
T1 sequence (P25101 whole entry): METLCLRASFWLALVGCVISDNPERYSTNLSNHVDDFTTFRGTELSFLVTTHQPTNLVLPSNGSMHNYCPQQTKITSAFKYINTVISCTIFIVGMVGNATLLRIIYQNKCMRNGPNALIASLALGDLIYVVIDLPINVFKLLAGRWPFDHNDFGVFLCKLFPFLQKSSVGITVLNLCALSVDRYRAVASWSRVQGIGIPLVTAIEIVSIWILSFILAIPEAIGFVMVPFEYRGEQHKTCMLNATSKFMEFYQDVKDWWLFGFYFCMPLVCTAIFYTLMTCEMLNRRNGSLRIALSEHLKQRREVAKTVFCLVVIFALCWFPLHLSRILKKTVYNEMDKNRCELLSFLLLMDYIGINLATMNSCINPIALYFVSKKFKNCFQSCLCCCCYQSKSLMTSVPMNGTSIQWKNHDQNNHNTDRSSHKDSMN

[3] = target: T2, Endothelin receptor type B (Homo sapiens, UniProt P24530); assay: Binding affinity to ETB receptor (unknown origin) assessed as inhibition constant
T2 sequence (P24530 whole entry): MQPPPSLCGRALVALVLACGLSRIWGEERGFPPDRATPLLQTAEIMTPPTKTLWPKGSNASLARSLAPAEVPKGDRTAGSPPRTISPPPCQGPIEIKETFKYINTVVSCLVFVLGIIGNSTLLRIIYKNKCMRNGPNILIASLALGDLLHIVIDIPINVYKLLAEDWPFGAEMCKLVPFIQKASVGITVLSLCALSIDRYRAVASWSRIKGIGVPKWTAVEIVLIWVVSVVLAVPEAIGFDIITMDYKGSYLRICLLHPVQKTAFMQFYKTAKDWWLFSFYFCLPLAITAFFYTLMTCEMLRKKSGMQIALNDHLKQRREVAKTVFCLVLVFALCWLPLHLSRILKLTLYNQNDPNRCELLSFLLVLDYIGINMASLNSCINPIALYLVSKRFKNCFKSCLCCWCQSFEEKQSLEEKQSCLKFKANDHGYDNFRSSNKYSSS

[4] = target: Endothelin receptor type B (Oryctolagus cuniculus, UniProt Q9N0W7); assay: Agonist activity to ETB receptor in rabbit pulmonary artery assessed as induction of vessel ring contraction; type: functional, tissue-based
[5] = Displacement of [125I]ET-1 from human ETB receptor expressed in green monkey COS7 cells Membrane assessed as inhibition constant incubated for 16 to 18 hrs by gamma counter analysis; type: cell membranes
Endothelin-1 receptor [6] = target: T1, Endothelin-1 receptor; assay: Displacement of [125I]endhothelin-1 from human ETA receptor stably expressed in CHO cells Membrane assessed as inhibition constant at 25 degC incubated for 4 hrs by saturation binding assay; type: cell membranes
[7] = target: T2, Endothelin receptor type B; assay: Displacement of [125I]endhothelin-3 from human ETB receptor stably expressed in CHO cells Membrane assessed as inhibition constant at 25 degC incubated for 4 hrs by saturation binding assay; type: cell membranes

Chain of Endothelin receptor type B (Oryctolagus cuniculus, UniProt Q9N0W7) (Q9N0W7 whole entry): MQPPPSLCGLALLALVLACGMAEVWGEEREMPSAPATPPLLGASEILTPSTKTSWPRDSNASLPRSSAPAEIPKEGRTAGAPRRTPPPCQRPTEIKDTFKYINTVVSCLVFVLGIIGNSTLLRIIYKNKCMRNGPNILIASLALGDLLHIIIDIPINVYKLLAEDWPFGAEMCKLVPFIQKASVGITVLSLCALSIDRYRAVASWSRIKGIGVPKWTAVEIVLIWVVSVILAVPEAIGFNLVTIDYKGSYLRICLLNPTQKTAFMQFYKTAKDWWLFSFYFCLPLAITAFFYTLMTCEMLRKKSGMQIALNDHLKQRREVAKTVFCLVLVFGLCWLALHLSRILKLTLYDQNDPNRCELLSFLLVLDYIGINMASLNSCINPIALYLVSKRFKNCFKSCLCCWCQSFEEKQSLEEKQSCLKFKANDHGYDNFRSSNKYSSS

Ki [3] [nM]	SMILES	Ratio IC50 [1]	further results
	CCCOc1ccc2c(c1)[C@@H](c1ccc(OC)cc1OCC(=O)O)[C@H](C(=O)O)[C@H]2c1ccc2c(c1)OCO2 [SB-209670]	90	
	CCCOc1ccc2c(c1)[C@@H](c1ccc(OC)cc1OCCO)[C@H](C(=O)O)[C@H]2c1ccc2c(c1)OCO2	1000	
	CC[C@H](C)[C@H](NC(=O)[C@@H](NC(=O)[C@H](CC(=O)O)NC(=O)[C@H](CCC(N)=O)NC(=O)[C@H](Cc1cnc[nH]1)NC(=O)[C@@H]1CSSC[C@H](N)C(=O)N[C@@H]([C@@H](C)O)C(=O)N[C@H]2CSSC[C@H](NC(=O)[C@H](CCC(=O)O)NC(=O)[C@H](CCC(=O)O)NC(=O)[C@H](CC(=O)O)NC(=O)[C@H]([C@@H](C)O)NC(=O)[C@H](CCSC)NC(=O)[C@H](CC(=O)O)NC(=O)[C@H](CC(N)=O)NC2=O)C(=O)N[C@@H](CC(C)C)C(=O)N[C@@H](CC(N)=O)C(=O)N[C@@H](Cc2ccccc2)C(=O)N1)C(C)C)C(=O)N[C@@H](Cc1c[nH]c2ccccc12)C(=O)O		EC50 [4]: 1.57 nM
	CC(C)C[C@@H]1NC(=O)[C@@H](c2cccs2)NC(=O)[C@H](CC(=O)O)NC(=O)[C@H](CC(=O)N2CCN(c3ccccc3)CC2)NC(=O)[C@@H](CC(=O)O)NC(=O)[C@@H](Cc2c[nH]c3ccccc23)NC1=O (HELM PEPTIDE1{D.D.[O=C([C@H](N[*:1])c1cccs1)[*:2]].L.[dW].[dD]}|CHEM1{[c1ccc(N2CCN([*:1])CC2)cc1]}$PEPTIDE1,CHEM1,1:R3-1:R1|PEPTIDE1,PEPTIDE1,1:R1-6:R2$$$V2.0) [listing 2 of 2 here]	454	
	Cc1cc2c(cc1CC(=O)c1sccc1S(=O)(=O)Nc1onc(C)c1Cl)OCO2 [SITAXENTAN]	>10000	Ki [5]: > 4300 nM
	CCCc1cc(C(=O)O)ccc1OC(C(=O)NS(=O)(=O)c1ccc(C(C)C)cc1)c1ccc2c(c1)OCO2 [L-754142]	42	Ki (Endothelin-1 receptor [6]): 33.6 nM; Ki [7]: 1420 nM
960	COc1cc(OC)nc(O[C@@H](C(=O)O)C(OC)(c2ccccc2)c2ccccc2)n1	160	Ki (Endothelin-1 receptor [2]): 6 nM
7300	CC(C)C[C@H](NC(=O)N1CCCCCC1)C(=O)N[C@H](Cc1cn(C)c2ccccc12)C(=O)N[C@H](Cc1ccccn1)C(=O)O		
> 130	COc1ccccc1Oc1c(NS(=O)(=O)c2ccc(C)cn2)nc(-c2ccnc(-c3nnn[nH]3)c2)nc1OCCO [CLAZOSENTAN]	>1000	

SMILES	Ki [3] [nM]	Ratio IC50 [1]	further results
CC(C)C[C@@H]1NC(=O)[C@@H](c2cccs2)NC(=O)[C@H](CC(=O)O)NC(=O)[C@H](CC(=O)N2CCN(c3ccccc3)CC2)NC(=O)[C@@H](CC(=O)O)NC(=O)[C@@H](Cc2c[nH]c3ccccc23)NC1=O (HELM PEPTIDE1{D.D.[O=C([C@H](N[*:1])c1cccs1)[*:2]].L.[dW].[dD]}|CHEM1{[c1ccc(N2CCN([*:1])CC2)cc1]}$PEPTIDE1,CHEM1,1:R3-1:R1|PEPTIDE1,PEPTIDE1,1:R1-6:R2$$$V2.0) [listing 1 of 2 here]	590		Ki (Endothelin-1 receptor [2]): 1.3 nM
